Drawing on publication PMC4092373, “Cell-secreted Flavins Bound to Membrane Cytochromes Dictate Electron Transfer Reactions to Surfaces with Diverse Charge and pH” (Scientific Reports, 2014), this text covers Kd and Ep for two compounds.

The target in one experiment is T1, MtrC (Shewanella oneidensis, UniProt Q8EG34).
T1 construct: native outer-membrane decaheme cytochrome in intact living cells (monolayer biofilm on ITO electrode), not purified
Nature of the experiment: whole-cell differential pulse voltammetry. Conditions: rough estimate in living wild-type MR-1 monolayer biofilm; printed for FMN and OM c-Cyts collectively, assigned to MtrC by gene deletions; saturation assumed at 52 μM FMN; semiquinone form bound under. The class given is cell-based.

The target in a further experiment is T2, OmcA (Shewanella oneidensis, UniProt Q8EG33).
T2 construct: native outer-membrane decaheme cytochrome in intact living cells (wild type and delta-mtrC strain on ITO electrode), not purified
Description: whole-cell differential pulse voltammetry. Format: cell-based. To be noted: redox peak potential of bound riboflavin, no affinity constant; delta-mtrC cells, 2.0 μM RF, 10 mM lactate, 30 °C; shift lost in delta-omcA cells.

Each structure is given as a SMILES string.

T1 sequence (Q8EG34 entry or part of it): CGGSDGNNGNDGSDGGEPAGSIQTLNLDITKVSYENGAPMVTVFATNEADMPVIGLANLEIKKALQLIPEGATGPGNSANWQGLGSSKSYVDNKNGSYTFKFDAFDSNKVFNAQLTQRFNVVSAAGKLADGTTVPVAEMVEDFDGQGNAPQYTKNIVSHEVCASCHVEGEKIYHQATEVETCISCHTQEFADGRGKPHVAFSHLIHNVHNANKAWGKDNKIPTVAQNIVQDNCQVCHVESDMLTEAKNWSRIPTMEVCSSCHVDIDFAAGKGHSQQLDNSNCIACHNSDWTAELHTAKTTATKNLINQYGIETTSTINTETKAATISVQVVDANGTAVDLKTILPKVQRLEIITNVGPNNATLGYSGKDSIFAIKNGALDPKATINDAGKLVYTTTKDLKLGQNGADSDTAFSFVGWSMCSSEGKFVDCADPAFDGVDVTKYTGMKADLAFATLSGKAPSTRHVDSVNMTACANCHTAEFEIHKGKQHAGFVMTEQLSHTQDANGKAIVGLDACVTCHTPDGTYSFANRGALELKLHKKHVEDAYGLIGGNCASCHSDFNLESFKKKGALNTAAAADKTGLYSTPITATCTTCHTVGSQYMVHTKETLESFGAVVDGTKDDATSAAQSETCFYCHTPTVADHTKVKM
T2 sequence (Q8EG33 entry or part of it): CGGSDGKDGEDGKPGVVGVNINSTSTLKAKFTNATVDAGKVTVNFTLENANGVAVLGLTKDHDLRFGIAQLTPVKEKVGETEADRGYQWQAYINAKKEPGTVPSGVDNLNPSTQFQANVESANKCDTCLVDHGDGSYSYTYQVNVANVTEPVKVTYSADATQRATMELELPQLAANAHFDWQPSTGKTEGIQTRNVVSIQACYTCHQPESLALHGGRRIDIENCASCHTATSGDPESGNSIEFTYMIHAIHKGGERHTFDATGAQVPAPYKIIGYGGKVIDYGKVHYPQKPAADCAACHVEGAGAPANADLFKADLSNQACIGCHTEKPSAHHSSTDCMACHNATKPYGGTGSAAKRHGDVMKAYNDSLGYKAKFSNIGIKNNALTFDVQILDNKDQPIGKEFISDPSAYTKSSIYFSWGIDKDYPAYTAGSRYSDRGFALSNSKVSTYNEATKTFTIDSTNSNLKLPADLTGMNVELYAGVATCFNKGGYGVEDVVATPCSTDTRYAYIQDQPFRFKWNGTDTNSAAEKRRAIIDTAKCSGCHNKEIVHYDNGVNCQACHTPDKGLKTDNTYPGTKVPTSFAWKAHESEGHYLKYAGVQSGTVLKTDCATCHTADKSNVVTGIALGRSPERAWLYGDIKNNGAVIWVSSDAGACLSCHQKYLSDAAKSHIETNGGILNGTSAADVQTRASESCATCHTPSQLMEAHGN

In general, Kd refers to a measure of binding affinity in units of concentration. For the compound `Cc1cc2nc3c(=O)[nH]c(=O)nc-3n(C[C@H](O)[C@H](O)[C@H](O)COP(=O)(O)O)c2cc1C` [FMN, flavin mononucleotide], the Kd on MtrC is about 10 µM. Regarding `Cc1cc2nc3c(=O)[nH]c(=O)nc-3n(C[C@H](O)[C@H](O)[C@H](O)CO)c2cc1C` [RF, riboflavin], the Ep at OmcA is reported as −102 mV.
